The source of these data is patent US5091539A, “Azolyl cycloalkanol derivatives and agricultural fungicides” (Shionogi & Co., Ltd., priority 1984, dated 1992).

What all share (assay type): in vivo
For experiment [1], the system named is Sphaerotheca fuliginea. Kind of experiment: Control test to powdery mildew of cucumber (foliar and soil treatment). Particulars: for Powdery mildew, Foliar Treatment, Curative Effect / Powdery mildew, Foliar Treatment, Protective Effect / Powdery mildew, Soil Treatment, Protective Effect: index 0-10. As for the experimental part: (1) Seeds of cucumber (Cultivar: Matsukaze) were sown in a pot of 9 cm in diameter and the pots were kept in a green house until the plant was grown for 2-3 leaf stage. The first leaf was sprayed with, (i) 3 ml each of solutions containing the test compound at the prescribed concetrations and dried by the air (foliar treatment). Inoculation of spore suspension of Sphaerotheca fuliginea by spraying was practised 2 days before the treatment (curative effect) or 1 day after the treatment (protective effect). Alternatively, (ii) 5 ml of the solution was applied at the root of the seedlings (soil treatment). The pots were kept in a greenhouse for 2 days and inoculation was practised in the same manner noted above. (iii) After sprayed with 3 ml of a solution of the test compound at a concentration of 125 ppm and dried by the air, the treated pots were set in a greenhouse. Untreated pots were placed next to the treated pots. Those treated and untreated plants were inoculated with spore suspension. Protective effect of the test compounds by vapor was thus checked. The effect was examined 14 days after the inoculation of the spores.
0: Disease sign is observed on the whole leaf.
3: Disease sign is observed on the leaf in about 50%.
5: Disease sign is observed on the leaf in about 30%.
7: Disease sign is observed on the leaf in about 20%.
9: a little disease sign is observed.
(§1) (1) Test methods and evaluation are the same as those in Tests 2, 4 and 6.

For experiment [2], the system named is Puccinia coronata. As to the kind of experiment: Control test of crown rust of oat. The conditions noted are these: 125 ppm. The protocol:
(1) Young oats (Cultivar: Pc38) grown in pots in a greenhouse were (i) sprayed with 10 ml each of solution of the test compounds at a prescribed concentration and after air-drying, they were inoculated with 15 mg of uredospores of Puccinia coronata per 20 pots (protective spraying) or (ii) sprayed with the test solution 3 days after inoculation of uredospores. After each plant was kept at 20°-25° C. in a greenhouse for 2 weeks, number of uredia was counted on the first leaf.

Experiment [3] concerns Sphaerotheca fuliginea. Kind of experiment: Control test to powdery mildew of cucumber by vapor (filter paper disks). The protocol: (1) The first leaves of young cucumber (Cultivar: Matsukaze) planted in pot of 9 cm in diameter were inoculated with spore suspension of Sphaerotheca fuliginea. After the plants were kept in a greenhouse for 2 days, thin cover plates, 15 mm in diameter, were put on the first leaves. Filter paper disks soaked with 80 μl of test solution at a concentration of 31.3, 7.8, 2.0 or 0.5 ppm were put on the plates for 3 days. Disease degrees were observed 14 days after the inoculation.
It is evaluated as + when an inhibition zone was observed around the plate, as ± when the inhibition zone has nearly the same diameter (8 mm) as that of plate or as - when there is no inhibition zone.
as §1

For experiment [4], the system named is Botrytis cinerea. Kind of experiment: Control test of Botrytis rot (gray mold) of cucumber. The protocol:
(1) Seedlings of cucumber (Cultivar: Matsukaze) were planted in a pot of 9 cm in diameter. The first leaf was sprayed with 3 ml each of solutions containing the test compound at the concentration of 125 or 31.3 ppm and the plant was dried by the air. After inoculation of the spores of Botrytis cinerea, the plants were kept at 20°±2° C. and 90-100% humidity ((i) protective spraying). Alternatively, the spores were inoculated at first and when the leaves suffered a little (about 2 days after), the solutions of the test compounds were sprayed ((ii) curative spraying). Evaluation was practised 3 days after the inoculation. Percent disease control was calculated by the ratio of diameter of diseased area in treated and untreated plants.
as §1

In the case of `O[C@@]1(c2cccc3ccccc23)CCCC[C@H]1n1cncn1` (relative stereo) [Compound 1, cis-1-(1-naphthyl)-2-(1,2,4-triazol-1-yl)/cyclohexanol], in experiment [1] (first Table 4, 125 ppm, foliar, 14 days), the “Protective Index, Foliar Treatment” value was determined as 10. Moreover, the “Protective Index, Soil Treatment” value in experiment [1] (first Table 4, 125 ppm, soil, 14 days) is on record as 5 (Disease sign is observed on the leaf in about 30%.). The “Percent Disease Control, Curative Spraying” value in experiment [2] (curative) worked out at 100%. The “Percent Disease Control, Protective Spraying” value in experiment [2] (protective) is 100%.

On to `O[C@]1(c2ccc(Cl)cc2)CCCC[C@H]1n1cncn1` (relative stereo) [Trans-isomer of Compound 22, 1-(4-chlorophenyl)-2-(1,2,4-triazol-1-yl)cyclohexanol, reference compound], for which the “Powdery mildew, Foliar Treatment, Curative Effect” value was 0 in experiment [1] (Table 9, 0.03 ppm); 0 in experiment [1] (Table 9, 0.12 ppm); 5 (Disease sign is observed on the leaf in about 30%.) in experiment [1] (Table 9, 0.5 ppm); 9 in experiment [1] (Table 9, 2.0 ppm). In addition, the “Powdery mildew, Foliar Treatment, Protective Effect” value in experiment [1] (Table 9, 0.03 ppm) is given as 0; in experiment [1] (Table 9, 0.12 ppm), 0; in experiment [1] (Table 9, 0.5 ppm) it was 3 (Disease sign is observed on the leaf in about 50%.); in experiment [1] (Table 9, 2.0 ppm), 10. For the same compound, the “Powdery mildew, Soil Treatment, Protective Effect” value is 0 in experiment [1] (Table 9, 0.5 ppm); 0 in experiment [1] (Table 9, 2.0 ppm); 0 in experiment [1] (Table 9, 7.8 ppm); 5 (Disease sign is observed on the leaf in about 30%.) in experiment [1] (Table 9, 31.3 ppm). Also, the “Powdery mildew, Vapor Effect” value in experiment [3] (Table 9, 2.0 ppm) is on record as “-”; in experiment [3] (Table 9, 7.8 ppm), “-”; in experiment [3] (Table 9, 31.3 ppm), “-”. For the same compound, the “Gray Mold, Percent Disease Control, Curative Spraying” value in experiment [4] (Table 9, 7.8 ppm) amounted to 0%; in experiment [4] (Table 9, 31.3 ppm), 0%; in experiment [4] (Table 9, 125 ppm), 2%. Besides, the “Gray Mold, Percent Disease Control, Protective Spraying” value worked out at 0% in experiment [4] (Table 9, 7.8 ppm); 3% in experiment [4] (Table 9, 31.3 ppm); 3% in experiment [4] (Table 9, 125 ppm).

`O[C@]1(c2ccc(F)cc2)CCCC[C@H]1n1cncn1` (relative stereo) [Trans-isomer of Compound 28, 1-(4-fluorophenyl)-2-(1,2,4-triazol-1-yl)cyclohexanol, reference compound]: the “Powdery mildew, Foliar Treatment, Curative Effect” value in experiment [1] (Table 9, 0.03 ppm) is 0; in experiment [1] (Table 9, 0.12 ppm) it was 0; in experiment [1] (Table 9, 0.5 ppm) it was 0; in experiment [1] (Table 9, 2.0 ppm) it was 9. The “Powdery mildew, Foliar Treatment, Protective Effect” value in experiment [1] (Table 9, 0.03 ppm) is reported as 0; in experiment [1] (Table 9, 0.12 ppm), 0; in experiment [1] (Table 9, 0.5 ppm), 0; in experiment [1] (Table 9, 2.0 ppm), 0. The “Powdery mildew, Soil Treatment, Protective Effect” value in experiment [1] (Table 9, 0.5 ppm) is given as 0; in experiment [1] (Table 9, 2.0 ppm), 0; in experiment [1] (Table 9, 7.8 ppm) it was 0; in experiment [1] (Table 9, 31.3 ppm), 9. In addition, the “Powdery mildew, Vapor Effect” value in experiment [3] (Table 9, 2.0 ppm) is on record as “-”; in experiment [3] (Table 9, 7.8 ppm), “-”; in experiment [3] (Table 9, 31.3 ppm), “-”. The “Gray Mold, Percent Disease Control, Curative Spraying” value turned out to be 0% in experiment [4] (Table 9, 7.8 ppm); 0% in experiment [4] (Table 9, 31.3 ppm); 9% in experiment [4] (Table 9, 125 ppm). Besides, the “Gray Mold, Percent Disease Control, Protective Spraying” value in experiment [4] (Table 9, 7.8 ppm) was found to be 3%; in experiment [4] (Table 9, 31.3 ppm) it was 5%; in experiment [4] (Table 9, 125 ppm), 0%.
